These results are taken from patent US20160243149A1, “NOVEL ANTI-VIRAL THERAPEUTIC” (priority 2012, published 2016).

Molecules are shown by their SMILES.

This test concerns the target T1, VPg unlinkase (Homo sapiens, UniProt O95551).
T1 construct: To generate the HeLa cell homogenate used for the isolation of VPg unlinkase, 5 ml of packed HeLa cells were homogenized; endogenous in cells; host or cells: HeLa cells (uninfected); enzyme fractionated from total cell homogenate
T1 sequence (O95551 1-362): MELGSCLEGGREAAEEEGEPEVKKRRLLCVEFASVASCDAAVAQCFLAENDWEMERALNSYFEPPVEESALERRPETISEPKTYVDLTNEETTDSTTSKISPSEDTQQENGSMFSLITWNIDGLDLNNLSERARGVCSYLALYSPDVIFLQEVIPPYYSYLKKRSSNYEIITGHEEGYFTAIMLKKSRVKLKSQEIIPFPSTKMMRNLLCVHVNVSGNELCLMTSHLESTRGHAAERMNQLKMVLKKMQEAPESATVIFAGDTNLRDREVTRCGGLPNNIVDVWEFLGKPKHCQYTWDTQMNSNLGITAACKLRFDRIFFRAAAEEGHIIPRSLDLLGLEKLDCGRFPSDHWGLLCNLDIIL
Type of test: biochemical.

Take `Cl.Nc1ncnc2c1ncn2[C@@H]1O[C@H](COC(=O)c2ccc(S(=O)(=O)F)cc2)[C@@H](O)[C@H]1O` [5′FSBA]: the “suppression of unlinkase activity” value was “effectively suppressed unlinkase activity”.
